{"source": "patent US11534446B2", "about": "“Pharmaceutical composition comprising 3-beta-hydroxy-5-alpha-pregnan-20-one with improved storage and solubility properties” (ASARINA PHARMA AB, priority 2010, dated 2022)", "experiment": "UC1010 concentration in 0.2 μm filtrate of suspensions in sesame oil with cholesterol (Example 77)", "assay_type": "physicochemical", "settings": "sesame oil suspension", "description": "Suspensions of 3-beta-hydroxy-5-alpha-pregnan-20-one were prepared for investigation of solubility as follows: cholesterol was first dissolved at room temperature in sesame oil at 10 and 20 mg/ml, respectively. Suspensions of 3-beta-hydroxy-5-alpha-pregnan-20-one in sesame oil with different amounts of cholesterol were prepared on a magnetic stirrer at about 500 rpm using a conventional Teflon coated stir bar, at room temperature for several days, with occasional cycling to 2-8° C. At this time, the particles have become substantially smaller. Thereafter, samples of the respective suspensions were filtered through a 0.2 μm filter and analyzed with regard to concentration of 3-beta-hydroxy-5-alpha-pregnan-20-one. The results are presented in Table 3 and FIG. 2 where it can be seen that increasing the amounts of cholesterol increases the soluble fraction of 3-beta-hydroxy-5-alpha-pregnan-20-one. […] FIGS. 3a and 3b show microscopy pictures taken at 5× enlargement of suspensions with a 3-beta-hydroxy-5-alpha-pregnan-20-one concentration of 10 mg/g and a cholesterol:3-beta-hydroxy-5-alpha-pregnan-20-one ratio of 1:1 immediately upon mixing (3a) and after several days of stirring (3b).", "data": [{"smiles": "CC(=O)[C@H]1CC[C@H]2[C@@H]3CC[C@H]4C[C@@H](O)CC[C@]4(C)[C@H]3CC[C@]12C", "note": "[3-beta-hydroxy-5-alpha-pregnan-20-one]", "values": [{"measurement": "3-beta-hydroxy-5-alpha-pregnan-20-one concentration in filtrate", "setting": "initial concentration 10 mg/g, weight ratio cholesterol to UC1010 0:1, 0.2 μm filter", "result": 1, "unit": "mg/mL"}, {"measurement": "3-beta-hydroxy-5-alpha-pregnan-20-one concentration in filtrate", "setting": "initial concentration 10 mg/g, weight ratio cholesterol to UC1010 1:1, 0.2 μm filter", "result": 1.8, "unit": "mg/mL"}, {"measurement": "3-beta-hydroxy-5-alpha-pregnan-20-one concentration in filtrate", "setting": "initial concentration 10 mg/g, weight ratio cholesterol to UC1010 2:1, 0.2 μm filter", "result": 2.2, "unit": "mg/mL"}, {"measurement": "3-beta-hydroxy-5-alpha-pregnan-20-one concentration in filtrate", "setting": "initial concentration 40 mg/g, weight ratio cholesterol to UC1010 1:2, 0.2 μm filter", "result": 1.9, "unit": "mg/mL"}, {"measurement": "3-beta-hydroxy-5-alpha-pregnan-20-one concentration in filtrate", "setting": "initial concentration 40 mg/g, weight ratio cholesterol to UC1010 1:4, 0.2 μm filter", "result": 1.4, "unit": "mg/mL"}]}]}
